# Measured values: ChEMBL document CHEMBL1201862, “PubChem BioAssay data set” (2004)
#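 Results reflect a 48-hour exposure of cells in 96-well plates to compound at five concentrations. Here, GI50 denotes the concentration required for 50% inhibition of growth.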 Active and inactive are the calls of the source. No stated cut-off is given here; in the data, active = GI50 up to about 1.1 µM and inactive = higher.
# Key:
# Assay in all cases: NCI-60 cell line screen, 48 h
# 786-0 = test system: 786-0
# A498 = test system: A498
# A549 = test system: A549
# ACHN = test system: ACHN
# BT-549 = test system: BT-549
# CAKI-1 = test system: CAKI-1
# COLO 205 = test system: COLO 205
# DU-145 = test system: DU-145
# EKVX = test system: EKVX
# HCC 2998 = test system: HCC 2998
# HCT-116 = test system: HCT-116
# HCT-15 = test system: HCT-15
# HOP-62 = test system: HOP-62
# HOP-92 = test system: HOP-92
# HT-29 = test system: HT-29
# Hs-578T = test system: Hs-578T
# IGROV-1 = test system: IGROV-1
# K562 = test system: K562
# KM12 = test system: KM12
# LOX IMVI = test system: LOX IMVI
# M14 = test system: M14
# MCF7 = test system: MCF7
# MDA-MB-231 = test system: MDA-MB-231
# MDA-MB-435 = test system: MDA-MB-435
# MDA-N = test system: MDA-N
# MOLT-4 = test system: MOLT-4
# Malme-3M = test system: Malme-3M
# NCI-H226 = test system: NCI-H226
# NCI-H23 = test system: NCI-H23
# NCI-H460 = test system: NCI-H460
# NCI-H522 = test system: NCI-H522
# NCI/ADR-RES = test system: NCI/ADR-RES
# OVCAR-3 = test system: OVCAR-3
# OVCAR-4 = test system: OVCAR-4
# OVCAR-5 = test system: OVCAR-5
# OVCAR-8 = test system: OVCAR-8
# PC-3 = test system: PC-3
# RPMI-8226 = test system: RPMI-8226
# RXF 393 = test system: RXF 393
# SF-268 = test system: SF-268
# SF-295 = test system: SF-295
# SF-539 = test system: SF-539
# SK-MEL-28 = test system: SK-MEL-28
# SK-MEL-2 = test system: SK-MEL-2
# SK-MEL-5 = test system: SK-MEL-5
# SK-OV-3 = test system: SK-OV-3
# SN12C = test system: SN12C
# SNB-19 = test system: SNB-19
# SNB-75 = test system: SNB-75
# SR = test system: SR
# SW-620 = test system: SW-620
# T47D = test system: T47D
# TK-10 = test system: TK-10
# U-251 = test system: U-251
# UACC-257 = test system: UACC-257
# UACC-62 = test system: UACC-62
# UO-31 = test system: UO-31
# CCRF-CEM = test system: CCRF-CEM
compound,measurement,setting,value
O=c1c(=O)c2cscc2c1=O,GI50,786-0,5.22 µM (inactive)
same,GI50,A498,> 25 µM (inactive)
same,GI50,A549,8.99 µM (inactive)
same,GI50,ACHN,4.69 µM (inactive)
same,GI50,BT-549,4.85 µM (inactive)
same,GI50,CAKI-1,4.4 µM (inactive)
same,GI50,COLO 205,4.73 µM (inactive)
same,GI50,DU-145,5.33 µM (inactive)
same,GI50,EKVX,5.11 µM (inactive)
same,GI50,HCC 2998,2.92 µM (inactive)
same,GI50,HCT-116,4.9 µM (inactive)
same,GI50,HCT-15,5.78 µM
same,GI50,HOP-62,5.15 µM (inactive)
same,GI50,HOP-92,5.47 µM (inactive)
same,GI50,HT-29,4.93 µM (inactive)
same,GI50,Hs-578T,9.75 µM (inactive)
same,GI50,IGROV-1,4.66 µM (inactive)
same,GI50,K562,0.0955 µM (active)
same,GI50,KM12,5.15 µM (inactive)
same,GI50,LOX IMVI,4.92 µM (inactive)
same,GI50,M14,4.94 µM (inactive)
same,GI50,MCF7,6.24 µM (inactive)
same,GI50,MDA-MB-231,5.14 µM (inactive)
same,GI50,MDA-MB-435,4.65 µM (inactive)
same,GI50,MDA-N,4.99 µM (inactive)
same,GI50,MOLT-4,4.58 µM (inactive)
same,GI50,Malme-3M,4.39 µM (inactive)
same,GI50,NCI-H226,5.55 µM (inactive)
same,GI50,NCI-H23,5.61 µM (inactive)
same,GI50,NCI-H460,7.76 µM (inactive)
same,GI50,NCI-H522,0.486 µM (active)
same,GI50,NCI/ADR-RES,8 µM (inactive)
same,GI50,OVCAR-3,5.62 µM (inactive)
same,GI50,OVCAR-4,4.99 µM (inactive)
same,GI50,OVCAR-5,4.74 µM (inactive)
same,GI50,OVCAR-8,6.55 µM (inactive)
same,GI50,PC-3,4.58 µM (inactive)
same,GI50,RPMI-8226,6.47 µM (inactive)
same,GI50,RXF 393,4.74 µM (inactive)
same,GI50,SF-268,4.4 µM (inactive)
same,GI50,SF-295,> 25 µM (inactive)
same,GI50,SF-539,4.95 µM (inactive)
same,GI50,SK-MEL-28,4.53 µM (inactive)
same,GI50,SK-MEL-2,4.92 µM (inactive)
same,GI50,SK-MEL-5,4.42 µM (inactive)
same,GI50,SK-OV-3,> 25 µM (inactive)
same,GI50,SN12C,5.87 µM (inactive)
same,GI50,SNB-19,6.56 µM (inactive)
same,GI50,SNB-75,4.32 µM (inactive)
same,GI50,SR,0.137 µM (active)
same,GI50,SW-620,0.989 µM (active)
same,GI50,T47D,3.66 µM (inactive)
same,GI50,TK-10,4.56 µM (inactive)
same,GI50,U-251,4.75 µM (inactive)
same,GI50,UACC-257,4.27 µM (inactive)
same,GI50,UACC-62,4.73 µM (inactive)
same,GI50,UO-31,4.75 µM (inactive)
CC(C)C(CC(=O)OCC(CO)OC(=O)CC(C(C)C)C(C)C)C(C)C (stereo unspecified),GI50,786-0,12.4 µM (inactive)
same,GI50,A498,15.3 µM (inactive)
same,GI50,A549,11 µM (inactive)
same,GI50,ACHN,10.9 µM (inactive)
same,GI50,BT-549,19.1 µM (inactive)
same,GI50,CAKI-1,12.3 µM (inactive)
same,GI50,CCRF-CEM,5.53 µM (inactive)
same,GI50,COLO 205,6.73 µM (inactive)
same,GI50,DU-145,15.4 µM (inactive)
same,GI50,EKVX,14 µM (inactive)
same,GI50,HCC 2998,15.8 µM (inactive)
same,GI50,HCT-116,16.2 µM (inactive)
same,GI50,HCT-15,16.9 µM
same,GI50,HOP-62,10.5 µM (inactive)
same,GI50,HOP-92,2.75 µM (inactive)
same,GI50,HT-29,17.4 µM (inactive)
same,GI50,Hs-578T,4.85 µM (inactive)
same,GI50,IGROV-1,19.1 µM (inactive)
same,GI50,K562,6 µM (inactive)
same,GI50,KM12,15.7 µM (inactive)
same,GI50,M14,14.1 µM (inactive)
same,GI50,MCF7,17.5 µM (inactive)
same,GI50,MDA-MB-231,15.7 µM (inactive)
same,GI50,MDA-MB-435,13.7 µM (inactive)
same,GI50,MDA-N,13.6 µM (inactive)
same,GI50,MOLT-4,10.1 µM (inactive)
same,GI50,Malme-3M,15.1 µM (inactive)
same,GI50,NCI-H226,16.1 µM (inactive)
same,GI50,NCI-H23,16.6 µM (inactive)
same,GI50,NCI-H460,11.8 µM (inactive)
same,GI50,NCI-H522,12.6 µM (inactive)
same,GI50,NCI/ADR-RES,13.5 µM (inactive)
same,GI50,OVCAR-3,13.9 µM (inactive)
same,GI50,OVCAR-4,18 µM (inactive)
same,GI50,OVCAR-5,13 µM (inactive)
same,GI50,PC-3,14.4 µM (inactive)
same,GI50,RXF 393,16.6 µM (inactive)
same,GI50,SF-268,14.3 µM (inactive)
same,GI50,SF-295,6.27 µM (inactive)
same,GI50,SK-MEL-28,16.2 µM (inactive)
same,GI50,SK-MEL-2,18.2 µM (inactive)
same,GI50,SK-MEL-5,11.9 µM (inactive)
same,GI50,SK-OV-3,16.7 µM (inactive)
same,GI50,SN12C,12.9 µM (inactive)
same,GI50,SNB-19,14.7 µM (inactive)
same,GI50,SNB-75,10.2 µM (inactive)
same,GI50,SR,22.1 µM (inactive)
same,GI50,SW-620,13.6 µM (inactive)
same,GI50,T47D,16.6 µM (inactive)
same,GI50,TK-10,13.3 µM (inactive)
same,GI50,U-251,13.1 µM (inactive)
same,GI50,UACC-257,17.1 µM (inactive)
same,GI50,UACC-62,15.8 µM (inactive)
same,GI50,UO-31,14.6 µM (inactive)
